Laboratory results taken from paper PMC10065799, “High-throughput profiling of sequence recognition by tyrosine kinases and SH2 domains using bacterial peptide display” (eLife, 2023).

Biological target: T1, c-Abl kinase domain (Mus musculus, UniProt P00520)
T1 sequence (P00520 242-493 limits assumed): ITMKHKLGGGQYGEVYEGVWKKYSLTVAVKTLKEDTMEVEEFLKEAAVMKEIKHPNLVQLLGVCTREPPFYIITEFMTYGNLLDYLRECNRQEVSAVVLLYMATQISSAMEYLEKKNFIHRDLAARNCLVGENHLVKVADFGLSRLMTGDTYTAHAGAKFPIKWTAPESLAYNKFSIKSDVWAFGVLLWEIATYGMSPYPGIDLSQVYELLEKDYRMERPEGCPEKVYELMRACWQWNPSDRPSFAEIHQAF
Assay: pTyr-Var library bacterial peptide display kinase screen (enrichment scores)
Assay type: biochemical
Details: variant versus reference peptide

ATVQNYLPKCI [A2M_Y817_L815Q]
c-Abl difference (mean log2 variant - mean log2 reference): -0.04049

LHVGFYESDVM [A2M_Y708_R704H]
c-Abl difference (mean log2 variant - mean log2 reference): -1.318
